Consider three molecules from patent US20190264146A1, “An Antimicrobial Composition” (priority 2015, published 2019).

Test in all cases: Microdilution test (MIC/MBC)
Common to all, as to type: cell-based
Common to all, as to conditions: lower line of pair, sub-cultivation 72 h
(In general: In broth dilution the organism is exposed to a series of concentrations in liquid medium.)

One assay deals with E. coli. As to the method:
(§1) Minimum inhibitory concentration (MIC) is the lowest concentration of an antimicrobial that will inhibit the visible growth of a microorganism after overnight incubation. Minimum inhibitory concentrations are important in diagnostic laboratories to confirm resistance of microorganisms to an antimicrobial agent and to monitor the activity of new antimicrobial agents. A MIC is the most basic laboratory measurement of the activity of an antimicrobial agent against an organism.
(§2) The minimum inhibitory and bactericidal concentrations (MICs and MBCs) can be determined using 96-well microtitre plates. The bacterial suspension is adjusted with sterile saline to a concentration of 1.0×10^5 cfu/m L. Compounds to be investigated are dissolved in broth LB medium (100 μL) with bacterial inoculum (1.0×10^4 cfu per well) to achieve the wanted concentrations (0.02-15.0 μL g/mL). The microplates are incubated for 24 h at 28° C. […] The MBCs are determined by serial sub-cultivation of 2 μL into microtitre plates containing 100 μL of broth per well and further incubation for 72 h. The lowest concentration with no visible growth is defined as the MBC, indicating 99.5% killing of the original inoculum. The optical density of each well is measured at a wavelength of 655 nm by Microplate manager 4.0 (Bio-Rad Laboratories) and compared with a blank and the positive control. Streptomycin is used as a positive control using the same concentrations as in the disc diffusion test. Two replicates were done for each oil and each component.

In a further assay the test system is M. flavus. As to the method:
as §1, §2

In another assay the test system is E. cloacae. As to the method: as §1, §2
In another assay the test system is S. enteritidis. As to the method: as §1, §2
Another assay deals with P. mirabilis. As to the method: as §1, §2
The next assay relates to B. subtilis. As to the method:
as §1, §2

The test system of the next assay is L. monocytogenes. As for the experimental part: as §1, §2
A further assay relates to S. aureus. As to the method:
as §1, §2

A further assay has as its system S. typhimurium. As for the experimental part:
as §1, §2

For a further assay, the system named is P. aeruginosa. As to the method: as §1, §2
In a further assay the test system is S. epidermidis. As to the method: as §1, §2

As for `CC12CCC(CC1)C(C)(C)O2` [1,8 cineole (eucalyptol)], the MBC was 8.0 μL g/mL in the assay on E. coli; 5.0 μL g/mL with M. flavus; 8.0 μL g/mL against E. cloacae; 6.0 μL g/mL in the assay with S. enteritidis; 8.0 μL g/mL against P. mirabilis; 5.0 μL g/mL against B. subtilis. Moreover, the MBC with L. monocytogenes worked out at 6.0 μL g/mL; against S. aureus, 6.0 μL g/mL; in the assay with S. typhimurium, 6.0 μL g/mL; in the assay with P. aeruginosa it was 9.0 μL g/mL; in the assay on S. epidermidis it was 5.0 μL g/mL.
Consider `C=C(C)[C@H]1CC=C(C)CC1` [Limonene], for which the MBC against E. coli was determined as 12.0 μL g/mL; in the assay with M. flavus, 7.0 μL g/mL; with E. cloacae, 10.0 μL g/mL; in the assay with S. enteritidis, 10.0 μL g/mL; in the assay with P. mirabilis, 15.0 μL g/mL; in the assay on B. subtilis, 7.0 μL g/mL. Besides, the MBC against L. monocytogenes was determined as 10.0 μL g/mL; with S. aureus, 8.0 μL g/mL; with S. typhimurium it was 10.0 μL g/mL; in the assay on P. aeruginosa, 15.0 μL g/mL; against S. epidermidis it was 8.0 μL g/mL.
`C=C1CCC2CC1C2(C)C` (stereo not drawn) [beta pinene]: the MBC worked out at 10.0 μL g/mL in the assay on E. coli; 5.5 μL g/mL in the assay with M. flavus; 10.0 μL g/mL with E. cloacae; 9.0 μL g/mL in the assay on S. enteritidis; 10.0 μL g/mL with P. mirabilis; 6.0 μL g/mL in the assay on B. subtilis. Further, the MBC against L. monocytogenes is recorded as 10.0 μL g/mL; with S. aureus, 7.5 μL g/mL; in the assay with S. typhimurium, 9.0 μL g/mL; with P. aeruginosa it was 13.0 μL g/mL; in the assay with S. epidermidis, 6.5 μL g/mL.
